# Earlier results in patent US9206171B2, “6-{2 -[1-(6-methyl-3-pyridazinyl)-4-piperidinyl]ethoxy}-3-ethoxy-1,2-benzisoxazole bis-dihydrogenphosphate salt (1:2)” (Biota Scientific Management Pty Ltd, priority 2008, dated 2015).
# Tests used:
# [1] = facile endogenous cleavage of the ester moiety, regardless of excipient
# [2] = patients using oral contraceptive formulations
smiles,measurement,setting,value
"CCOC(=O)c1ccc(OCCC2CCN(c3ccc(C)nn3)CC2)cc1 [Pirodavir, 4-[2-[1-(6-methyl-3-pyridazinyl)-4-piperidinyl]-ethoxy]benzoate]",bioavailability (in words),[1],poor bioavailability
same,aqueous solubility (in words),,poor aqueous solubility
Cc1cc(CCCOc2c(C)cc(-c3noc(C(F)(F)F)n3)cc2C)on1 [Pleconaril],interaction with oral contraceptive formulations,[2],interact adversely
